What was measured:
[1] = system: SF-268; assay: Growth inhibition of human SF268 cells after 48 hrs by sulforhodamine B assay; type: functional; conditions: SF-268, 48 h
[2] = system: NCI-H226; assay: Growth inhibition of human NCI-H226 cells after 48 hrs by sulforhodamine B assay; type: functional; conditions: NCI-H226, 48 h
[3] = Growth inhibition of human HOP92 cells after 48 hrs by sulforhodamine B assay; type: functional; conditions: HOP-92, 48 h
[4] = Growth inhibition of human BT549 cells after 48 hrs by sulforhodamine B assay; type: functional; conditions: BT-549, 48 h
[5] = system: T47D; assay: Growth inhibition of human T47D cells after 48 hrs by sulforhodamine B assay; type: functional
[6] = Growth inhibition of human OVCAR3 cells after 48 hrs by sulforhodamine B assay; type: functional; conditions: OVCAR-3, 48 h
[7] = Growth inhibition of human UACC62 cells after 48 hrs by sulforhodamine B assay; type: functional; conditions: UACC-62, 48 h
[8] = system: U-251; assay: Growth inhibition of human U251 cells after 48 hrs by sulforhodamine B assay; type: functional; conditions: U-251, 48 h
[9] = system: IGROV-1; assay: Growth inhibition of human IGROV1 cells after 48 hrs by sulforhodamine B assay; type: functional; conditions: IGROV-1, 48 h
[10] = system: SK-MEL-2; assay: Growth inhibition of human SK-MEL-2 cells after 48 hrs by sulforhodamine B assay; type: functional; conditions: SK-MEL-2, 48 h
[11] = system: 786-0; assay: Growth inhibition of human 786-0 cells after 48 hrs by sulforhodamine B assay; type: functional; conditions: 786-0, 48 h
[12] = system: SN12C; assay: Growth inhibition of human SN12C cells after 48 hrs by sulforhodamine B assay; type: functional
[13] = Growth inhibition of human OVCAR4 cells after 48 hrs by sulforhodamine B assay; type: functional; conditions: OVCAR-4, 48 h
[14] = Growth inhibition of human EKVX cells after 48 hrs by sulforhodamine B assay; type: functional
[15] = system: SK-MEL-5; assay: Growth inhibition of human SK-MEL-5 cells after 48 hrs by sulforhodamine B assay; type: functional; conditions: SK-MEL-5, 48 h
[16] = Growth inhibition of human HCT116 cells after 48 hrs by sulforhodamine B assay; type: functional; conditions: HCT-116, 48 h
[17] = system: NCI-H460; assay: Growth inhibition of human NCI-H460 cells after 48 hrs by sulforhodamine B assay; type: functional; conditions: NCI-H460, 48 h
[18] = system: SW-620; assay: Growth inhibition of human SW620 cells after 48 hrs by sulforhodamine B assay; type: functional; conditions: SW-620, 48 h
[19] = Growth inhibition of human COLO205 cells after 48 hrs by sulforhodamine B assay; type: functional; conditions: COLO 205, 48 h
[20] = system: MDA-MB-435; assay: Growth inhibition of human MDA-MB-435 cells after 48 hrs by sulforhodamine B assay; type: functional; conditions: MDA-MB-435, 48 h
[21] = Cytotoxicity against human NCI60 cells; type: functional
[22] = Growth inhibition of human MOLT4 cells after 48 hrs by sulforhodamine B assay; type: functional; conditions: MOLT-4, 48 h
[23] = system: CAKI-1; assay: Growth inhibition of human CAKI-1 cells after 48 hrs by sulforhodamine B assay; type: functional; conditions: CAKI-1, 48 h
[24] = Growth inhibition of human UO31 cells after 48 hrs by sulforhodamine B assay; type: functional; conditions: UO-31, 48 h
[25] = system: K562; assay: Growth inhibition of human K562 cells after 48 hrs by sulforhodamine B assay; type: functional; conditions: K562, 48 h
[26] = Growth inhibition of human LOXIMVI cells after 48 hrs by sulforhodamine B assay; type: functional; conditions: LOX IMVI
[27] = Growth inhibition of human Hs 578T cells after 48 hrs by sulforhodamine B assay; type: functional
[28] = system: Paracentrotus lividus; assay: Antimitotic microtubule destabilizing activity in Paracentrotus lividus L embryos assessed as induction of cleavage alteration
[29] = system: HOP-62; assay: Growth inhibition of human HOP62 cells after 48 hrs by sulforhodamine B assay; type: functional; conditions: HOP-62, 48 h
[30] = system: NCI-H322M; assay: Growth inhibition of human NCI-H322M cells after 48 hrs by sulforhodamine B assay; type: functional
[31] = system: NCI-H23; assay: Growth inhibition of human NCI-H23 cells after 48 hrs by sulforhodamine B assay; type: functional; conditions: NCI-H23, 48 h
[32] = system: A498; assay: Growth inhibition of human A498 cells after 48 hrs by sulforhodamine B assay; type: functional; conditions: A498, 48 h
[33] = system: A549; assay: Growth inhibition of human A549/ATCC cells after 48 hrs by sulforhodamine B assay; type: functional; conditions: A549, 48 h
[34] = Growth inhibition of human RPMI8226 cells after 48 hrs by sulforhodamine B assay; type: functional; conditions: RPMI-8226, 48 h
[35] = system: Paracentrotus lividus; assay: Antimitotic microtubule destabilizing activity in Paracentrotus lividus L embryos assessed as induction of embryo spinning
[36] = system: SR; assay: Growth inhibition of human SR cells after 48 hrs by sulforhodamine B assay; type: functional
[37] = system: ACHN; assay: Growth inhibition of human ACHN cells after 48 hrs by sulforhodamine B assay; type: functional
[38] = Growth inhibition of human HCC2998 cells after 48 hrs by sulforhodamine B assay; type: functional; conditions: HCC 2998, 48 h
[39] = system: HL-60(TB); assay: Growth inhibition of human HL-60(TB) cells after 48 hrs by sulforhodamine B assay; type: functional; conditions: HL-60, 48 h
[40] = system: DU-145; assay: Growth inhibition of human DU145 cells after 48 hrs by sulforhodamine B assay; type: functional; conditions: DU-145, 48 h
[41] = system: CCRF-CEM; assay: Growth inhibition of human CCRF-CEM cells after 48 hrs by sulforhodamine B assay; type: functional
[42] = system: KM12; assay: Growth inhibition of human KM12 cells after 48 hrs by sulforhodamine B assay; type: functional; conditions: KM12, 48 h
[43] = system: MDA-MB-231; assay: Growth inhibition of human MDA-MB-231 cells after 48 hrs by sulforhodamine B assay; type: functional; conditions: MDA-MB-231, 48 h
[44] = system: SK-OV-3; assay: Growth inhibition of human SKOV3 cells after 48 hrs by sulforhodamine B assay; type: functional; conditions: SK-OV-3, 48 h
[45] = system: M14; assay: Growth inhibition of human M14 cells after 48 hrs by sulforhodamine B assay; type: functional; conditions: M14, 48 h
[46] = Growth inhibition of human HCT15 cells after 48 hrs by sulforhodamine B assay; type: functional; conditions: HCT-15, 48 h
[47] = system: HT-29; assay: Growth inhibition of human HT-29 cells after 48 hrs by sulforhodamine B assay; type: functional; conditions: HT-29, 48 h
[48] = Growth inhibition of human UACC257 cells after 48 hrs by sulforhodamine B assay; type: functional; conditions: UACC-257, 48 h
[49] = Growth inhibition of human OVCAR8 cells after 48 hrs by sulforhodamine B assay; type: functional; conditions: OVCAR-8, 48 h
[50] = system: Paracentrotus lividus; assay: Antimitotic microtubule destabilizing activity in Paracentrotus lividus L embryos assessed as induction of cleavage arrest
[51] = Growth inhibition of human PC3 cells after 48 hrs by sulforhodamine B assay; type: functional; conditions: PC-3, 48 h
[52] = system: SNB-75; assay: Growth inhibition of human SNB75 cells after 48 hrs by sulforhodamine B assay; type: functional; conditions: SNB-75, 48 h
[53] = Growth inhibition of human SF539 cells after 48 hrs by sulforhodamine B assay; type: functional; conditions: SF-539, 48 h
[54] = system: NCI-H522; assay: Growth inhibition of human NCI-H522 cells after 48 hrs by sulforhodamine B assay; type: functional; conditions: NCI-H522, 48 h
[55] = Growth inhibition of human SF295 cells after 48 hrs by sulforhodamine B assay; type: functional; conditions: SF-295, 48 h
[56] = system: SNB-19; assay: Growth inhibition of human SNB19 cells after 48 hrs by sulforhodamine B assay; type: functional; conditions: SNB-19, 48 h
[57] = system: MDA-MB-468; assay: Growth inhibition of human MDA-MB-468 cells after 48 hrs by sulforhodamine B assay; type: functional; conditions: MDA-MB-468, 48 h
[58] = Growth inhibition of human H1299 cells after 48 hrs by sulforhodamine B assay; type: functional; conditions: NCI-H1299, 48 h
[59] = Growth inhibition of human RXF393 cells after 48 hrs by sulforhodamine B assay; type: functional; conditions: RXF 393, 48 h
[60] = system: MCF7; assay: Growth inhibition of human MCF7 cells after 48 hrs by sulforhodamine B assay; type: functional; conditions: MCF7, 48 h
[61] = Growth inhibition of human NCI-ADR-RES cells after 48 hrs by sulforhodamine B assay; type: functional
[62] = system: TK-10; assay: Growth inhibition of human TK10 cells after 48 hrs by sulforhodamine B assay; type: functional; conditions: TK-10, 48 h
[63] = Growth inhibition of human OVCAR5 cells after 48 hrs by sulforhodamine B assay; type: functional; conditions: OVCAR-5, 48 h

COc1ccc2c(c1)OC(N)=C(C#N)C2c1cc(OC)c(OC)c(OC)c1 (racemic)
GI50 [1]: 73.2 nM | GI50 [2]: 83.9 nM | GI50 [3]: 20.7 nM | GI50 [4]: 25 nM | GI50 [5]: > 100000 nM | GI50 [6]: 25.8 nM | GI50 [7]: 37.9 nM | GI50 [8]: 26.2 nM | GI50 [9]: 42.5 nM | GI50 [10]: 27.6 nM | GI50 [11]: 49.4 nM | GI50 [12]: 58.7 nM | GI50 [13]: 80.8 nM | GI50 [14]: 251 nM | GI50 [15]: 24 nM | GI50 [16]: 30.6 nM | GI50 [17]: 34.4 nM | GI50 [18]: 38.8 nM | GI50 [19]: 28.1 nM | GI50 [20]: 15 nM | GI50 [21]: 45 nM | GI50 [22]: 37 nM | GI50 [23]: 146 nM | GI50 [24]: 1570 nM | GI50 [25]: 34.3 nM | GI50 [26]: 34 nM | GI50 [27]: 49 nM | EC [28]: 0.01 µM | GI50 [29]: 62.6 nM | GI50 [30]: 48 nM | GI50 [31]: 36.5 nM | GI50 [32]: 20.9 nM | GI50 [33]: 37.6 nM | GI50 [34]: 37.9 nM | EC [35]: 0.5 µM | GI50 [36]: 27.1 nM | GI50 [37]: 76 nM | GI50 [38]: 28.2 nM | GI50 [39]: 25.6 nM | GI50 [40]: 25.2 nM | GI50 [41]: 33.7 nM | GI50 [42]: 25.1 nM | GI50 [43]: 38.1 nM | GI50 [44]: 33 nM | GI50 [45]: 25.5 nM | GI50 [46]: 32.8 nM | GI50 [47]: 27.8 nM | GI50 [48]: 0.0371 µM | GI50 [49]: 34.5 nM | EC [50]: 0.05 µM | GI50 [51]: 42.8 nM | GI50 [52]: 42.9 nM | GI50 [53]: 33.5 nM | GI50 [54]: 12.3 nM | GI50 [55]: 25.2 nM | GI50 [56]: 86.4 nM | GI50 [57]: 21.6 nM | GI50 [58]: 45 nM | GI50 [59]: 25.9 nM | GI50 [60]: 34.2 nM | GI50 [61]: 19.9 nM

COc1cccc(C2C(C#N)=C(N)Oc3cc(OC)ccc32)c1 (centres undefined)
GI50 [62]: 11.8 µM | GI50 [1]: 73.5 nM | GI50 [2]: 835 nM | GI50 [4]: 87.2 nM | GI50 [5]: 43.7 nM | GI50 [6]: 27.8 nM | GI50 [7]: 70.5 nM | GI50 [9]: 48.2 nM | GI50 [11]: 50.7 nM | GI50 [12]: 69.3 nM | GI50 [13]: 535 nM | GI50 [15]: 50.3 nM | GI50 [16]: 47.9 nM | GI50 [17]: 36.4 nM | GI50 [18]: 38.1 nM | GI50 [19]: 45.2 nM | GI50 [20]: < 10 nM | GI50 [21]: 55 nM | GI50 [22]: 55.7 nM | GI50 [23]: 42.6 nM | GI50 [24]: 57.2 nM | GI50 [63]: 66.2 nM | GI50 [25]: 19.7 nM | GI50 [27]: 28.3 nM | EC [28]: 0.002 µM | GI50 [29]: 41.6 nM | GI50 [30]: 63.1 nM | GI50 [31]: 40 nM | GI50 [32]: 18.6 nM | GI50 [33]: 45.2 nM | GI50 [34]: 37.4 nM | EC [35]: 0.05 µM | GI50 [36]: 20.2 nM | GI50 [37]: 120 nM | GI50 [38]: 51.5 nM | GI50 [39]: 25 nM | GI50 [40]: 35.1 nM | GI50 [41]: 31.2 nM | GI50 [42]: 30.3 nM | GI50 [43]: 54.6 nM | GI50 [44]: 34 nM | GI50 [45]: 26.8 nM | GI50 [46]: 36.6 nM | GI50 [47]: 37 nM | GI50 [48]: 12.4 µM | GI50 [49]: 51.4 nM | EC [50]: 0.01 µM | GI50 [51]: 35.7 nM | GI50 [52]: 27 nM | GI50 [53]: 25 nM | GI50 [54]: < 10 nM | GI50 [55]: 25.4 nM | GI50 [56]: 3770 nM | GI50 [57]: 35 nM | GI50 [58]: 55 nM | GI50 [59]: 26 nM | GI50 [60]: 17.1 nM | GI50 [61]: 14.9 nM

Reference: ChEMBL document CHEMBL3352739, “Comparative in vivo evaluation of polyalkoxy substituted 4H-chromenes and oxa-podophyllotoxins as microtubule destabilizing agents in the phenotypic sea urchin embryo assay” (2014)
